Measured values from patent US20240417435A1, “DEFENSIN-DERIVED PEPTIDE WITH ANTIBACTERIAL ACTIVITY ALSO AGAINST MULTI-ANTIBIOTIC-RESISTANT BACTERIA” (priority 2021, published 2024).
In brackets after ≈: the same amount, converted by molar mass. Where a SMILES comes first, the peptide text is derived from it.

Columns and labels:
[1] = tested on: A. baumannii MDR strain 1; type: cell-based, Acinetobacter baumannii complex
Experimental: (§1) The antimicrobial activity of peptide γ2 was evaluated versus Pseudomonas aeruginosa ATCC 27853, Escherichia coli ATCC 13762 and Staphylococcus aureus ATCC 6538, and versus multidrug-resistant (MDR) clinical isolates of Methicillin-Resistant Staphylococcus aureus (MRSA), extended-spectrum β-lactamase (ESBL)-producing E. coli, P. aeruginosa and Acinetobacter baumannii complex. The isolates were identified by mass spectrometry using the MALDI (matrix-assisted laser desorption/ionisation) mass spectrometer and the biochemical phenotyping method in a VITEKR 2 bioMérieux system (bioMérieux Italia S.p.a., Bagno a Ripoli, Florence, Italy), according to the manufacturer's instructions. The antibiotic susceptibility profile was evaluated with the VITEKR 2 bioMérieux System. The microorganisms were cultured in broth and agar at 37° C. The media used were BD Brain Heart Infusion broth (BHI) (BD, Franklin Lakes, NJ, USA) and BHI agar (OXOID, Basingstoke, Hampshire, UK), BD Trypticase Soy agar with 5% sheep's blood and MacConkey agar (OXOID, Basingstoke, Hampshire, UK). The isolates were stored frozen at −80° C. in BHI broth supplemented with 10% (v/v) glycerol (Carlo Erba Reagents, Milan, Italy) until use, and the work cultures were activated in the respective broths at 37° C. for 15-18 h.
(§2) Assays of the antibacterial activity of peptide γ2, in both reduced and oxidised form, were conducted against P. aeruginosa ATCC 27853, E. coli ATCC 13762, S. aureus ATCC 6538 and MDR clinical isolates. The strains were cultured under aerobic conditions in BHI broth at 37° C. and incubated with peptide γ2 for 2 hours at 37° C. Various concentrations of peptide were used, ranging from 1 μM to 128 μM. Each test was conducted in triplicate with three independent cultures. The minimum inhibitory concentration (MIC) and the minimum bactericidal concentration (MBC) of the peptide were determined with a modified version of the Clinical and Laboratory Standards Institute broth microdilution assay, using a final inoculum concentration of 10^5 CFU/ml, as previously described (Scudiero O et al., Antimicrob Agents Chemother 2010; 54:2312-22; Scudiero O et al. Antimicrob Ag Chemother 2013; 57:1701-8).
(§3) The MIC is indicated by the concentration interval, which comprise the upper growth limit and the first concentration which could not support visible bacterial growth after incubation. The MBC was defined as the lowest concentration at which no viable colonies were observed. The peptide concentrations were 128.0, 64.0, 32.0, 16.0, 8.0, 4.0, 2.0 and 1 μM. For the time-kill studies against the ATCC and MDR strains, the bacteria were cultured in BHI broth until the late log growth phase at 37° C. The bacterial suspensions, containing about 10^6 CFU/ml (adjusted by the spectrophotometer to OD600 nm), were diluted 1:100 in PBS1× and then incubated at 37° C. with or without the peptide, selected at concentrations corresponding to 1, 2 and 4×MIC (as determined above). At baseline and 1, 2, 3 and 5 hours after incubation, a portion of each sample was harvested, diluted in series in PBS1× and seeded on BHI agar. The plates were incubated for […] at 37° C., and the viable bacteria count was conducted by the CFU method. All the data were expressed as mean±SD of three independent experiments.

[2] = tested on: A. baumannii MDR strain 2; type: cell-based, Acinetobacter baumannii complex
Experimental: as §1, §2, §3

P. aeruginosa ATCC 27853 = assay: In vitro time-kill kinetics assay; type: cell-based, Pseudomonas aeruginosa
Experimental: as §3

[3] = tested on: P. aeruginosa MDR 2 strain; assay: In vitro time-kill kinetics assay; type: cell-based, Pseudomonas aeruginosa
Experimental: as §3

[4] = tested on: MRSA strain 2 (intracellular, HeLa cells); assay: Invasion and protection assay in HeLa cells; type: cell-based, Staphylococcus aureus; conditions: MRSA 2 strain in HeLa cells; 40 μM for 1 h
Experimental: (§4) The S. aureus ATCC 6538, MRSA strain 2 and MRSA strain 3 invasion assays were conducted as previously described (Colicchio R et al., Antimicrob Agents Chemother 2015; 59:7637-49; Spinosa M R et al. Infect Immun 2007; 75:3594-3603). HeLa cells (ATCC CCL-2) were used for the standard invasion and intracellular viability assays. The cells were cultured in DMEM with 2 mM L-glutamine. The cells were infected at a multiplicity of infection (MOI) of 50 for 1 h, washed twice with PBS1× to eliminate most of the extracellular bacteria, exposed to gentamicin (Sigma-Aldrich) to kill the remaining extracellular bacteria, and then destroyed with saponin (0.5%) to release the intracellular bacteria. To quantify the intracellular staphylococci released by the HeLa cells, the lysed cell suspension was plated on BHI agar, and the number of CFUs was counted the next day. When required, cells were re-incubated in the cell culture medium for various times (3 and 5 hours) after treatment with gentamicin. Treatment with gentamicin was conducted using 105 μM, a concentration 10 times higher than the MIC, for 30 minutes at 37° C. with 5% CO2. Cells were then washed thoroughly with PBS1× to remove the gentamicin and dead extracellular bacteria, and then lysed or re-incubated with medium. To evaluate the protection with the reduced peptide γ2 after treatment with gentamicin, the molecule was added to the sample at the final concentration of 40 µM for 1 hour, then washed twice with PBS1×, and finally destroyed with saponin. As the antibacterial activity of the reduced and oxidised peptide γ2 against S. aureus ATCC 6538 was very similar (Table 1), only the reduced form was used in the test. In all the experiments, the bacteria were centrifuged (60×g) on the cells to start the assay. The experiments were conducted in triplicate, and the data were expressed as mean±SD.

[5] = tested on: MRSA strain 3 (intracellular, HeLa cells); assay: Invasion and protection assay in HeLa cells; type: cell-based, Staphylococcus aureus; conditions: MRSA 3 strain in HeLa cells; 40 μM for 1 h; all times tested
Experimental: as §4

[6] = tested on: S. aureus ATCC 6538 (intracellular, HeLa cells); assay: Invasion and protection assay in HeLa cells; type: cell-based, Staphylococcus aureus; conditions: wild-type strain S. aureus ATCC 6538 in HeLa cells; 40 μM for 1 h; all times tested
Experimental: as §4

CC[C@H](C)[C@H](NC(=O)[C@H](CCC(N)=O)NC(=O)[C@H](CCCNC(=N)N)NC(=O)[C@H](CCCNC(=N)N)NC(=O)[C@H](CCCCN)NC(=O)[C@@H]1CCCN1C(=O)[C@H](CC(C)C)NC(=O)[C@H](CS)NC(C)=O)C(=O)NCC(=O)N[C@@H](CCCCN)C(=O)N[C@@H](CO)C(=O)N[C@@H](CO)C(=O)N[C@H](C(=O)N[C@@H](CCCNC(=N)N)C(=O)NCC(=O)N[C@@H](CCCNC(=N)N)C(=O)N[C@@H](CCCCN)C(=O)N[C@@H](CO)C(=O)N[C@@H](CS)C(=O)N[C@@H](CCCCN)C(=O)N[C@@H](CCCCN)C(N)=O)[C@@H](C)O [Reduced peptide γ2] (Ac-CLPKRRQIGKSSTRGRKSCKK-NH2)
MBC [1]: 64 µM (≈ 157 µg/mL) | MIC ([2]; A. baumannii MDR strain 2): 1 µM (≈ 2.46 µg/mL) | MBC ([2]; MDR strain 2): 1 µM (≈ 2.46 µg/mL) | growth in time-kill assay (P. aeruginosa ATCC 27853; peptide at 2×MIC): no growth | growth and viability in time-kill assay (P. aeruginosa ATCC 27853; peptide at MIC only): initial reduction in growth and viability in the first few hours of observation, whereas at longer times (5 and 7 h) a slight resumption in growth and viability | growth in time-kill assay ([3]; peptide at 2×MIC): no growth | growth and viability in time-kill assay ([3]; peptide at MIC only): initial reduction in growth and viability in the first few hours of observation, whereas at longer times (5 and 7 h) a slight resumption in growth and viability | viable intracellular bacteria (CFU) [4]: bacteriostatic effect | viable intracellular bacteria (CFU) [5]: great reduction in viable intracellular bacteria | viable intracellular bacteria (CFU) [6]: great reduction in viable intracellular bacteria
